Experimental findings from ChEMBL document CHEMBL4330100, “Selective estrogen receptor degraders with novel structural motifs induce regression in a tamoxifen-resistant breast cancer xenograft” (Bioorg Med Chem Lett, 2019) are described below.

One series addresses T1, Estrogen receptor (Homo sapiens, UniProt P03372).
T1 sequence (P03372 whole entry): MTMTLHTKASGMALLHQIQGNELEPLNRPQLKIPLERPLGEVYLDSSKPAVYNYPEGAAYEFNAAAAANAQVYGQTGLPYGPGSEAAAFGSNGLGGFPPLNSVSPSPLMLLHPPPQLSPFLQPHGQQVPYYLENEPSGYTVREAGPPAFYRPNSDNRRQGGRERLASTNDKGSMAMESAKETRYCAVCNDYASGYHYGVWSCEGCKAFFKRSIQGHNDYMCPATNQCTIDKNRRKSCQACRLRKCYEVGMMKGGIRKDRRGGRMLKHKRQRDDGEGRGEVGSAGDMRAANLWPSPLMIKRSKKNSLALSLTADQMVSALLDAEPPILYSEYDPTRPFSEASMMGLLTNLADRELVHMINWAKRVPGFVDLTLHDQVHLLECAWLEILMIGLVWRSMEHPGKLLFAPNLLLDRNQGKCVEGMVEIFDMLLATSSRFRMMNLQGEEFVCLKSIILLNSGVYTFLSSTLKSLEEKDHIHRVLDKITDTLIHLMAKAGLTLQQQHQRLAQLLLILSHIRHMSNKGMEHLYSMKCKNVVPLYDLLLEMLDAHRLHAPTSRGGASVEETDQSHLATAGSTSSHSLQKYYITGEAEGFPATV
As to the kind of experiment: Induction of ERalpha degradation in human MCF7 cells in phenol red free RPMI medium containing 5% charcoal-stripped FBS incubated for 4 hrs by IRDye 800CW/DRAQ5 dye based in-cell Western assay.

A further series has as its system MCF7. As to the kind of experiment: Antiproliferative activity against human MCF7 cells assessed as reduction in cell proliferation measured after 5 days by Cell-titer-Glo assay. Format: functional, cell-based. The following applies: MCF7, 120 h.
The subject of series [1] is Rattus norvegicus. The series can be described thus: In vivo antagonist activity at estrogen receptor in CD-IGS rat assessed as reduction in 17alpha-ethynylestradiol-stimulated increase in uterine wet weight at 1 mg/kg, po administered daily 15 mins before 17alpha-ethynylestradiol treatment for 3 days and measured 24 hrs post last dose relative to basal level. It counts as functional.

Series [2] relates to Rattus norvegicus. As to the kind of experiment: In vivo antagonist activity at estrogen receptor in CD-IGS rat assessed as inhibition of estrogen-stimulated uterine growth at 1 mg/kg, po administered daily 15 mins before estrogen treatment for 3 days and measured 24 hrs post last dose relative to ARN-180. It counts as functional.
Series [3] is described as follows: AUC in CD-1 mouse at 10 mg/kg, po administered at truncated timecourse (1, 4, 24 hrs). Format: ADME, organism-based. The following applies: in vivo.
The nature of series [4]: Fraction unbound in 10% CD-1 mouse plasma at 10 uM measured after 20 to 24 hrs by equlibrium dialysis method. Format: ADME, cell-free. The following applies: 10% plasma.
Series [5] is described as follows: Oral bioavailability in CD-1 mouse at 10 mg/kg administered at truncated timecourse (1, 4, 24 hrs). The following applies: in vivo. It counts as ADME, organism-based.
Series [6] in a line: Plasma clearance in CD-1 mouse at 2 mg/kg, iv administered as cassette dose. It counts as ADME, organism-based.
Series [7] is described as follows: Volume of distribution at steady state in CD-1 mouse at 2 mg/kg, iv administered as cassette dose. Format: ADME, organism-based. The settings on record: in vivo, read-out: Vdss.
Series [8] is described as follows: Half life in CD-1 mouse at 2 mg/kg, iv administered as cassette dose. Format: ADME, organism-based. The following applies: in vivo.
Series [9] can be described thus: AUC in CD-1 mouse at 10 mg/kg, po. It counts as ADME, organism-based. The following applies: in vivo.
Series [10] in a line: Oral bioavailability in CD-1 mouse at 10 mg/kg. It counts as ADME, organism-based. The following applies: in vivo; for bioavailability: CD-1, mouse.
The nature of series [11]: Plasma clearance in CD-1 mouse at 3 mg/kg, iv. Format: ADME, organism-based.
A short description of series [12]: Volume of distribution at steady state in CD-1 mouse at 3 mg/kg, iv. It counts as ADME, organism-based. The following applies: in vivo; for Vd: CD-1, mouse, read-out: Vdss.
Series [13] is described as follows: Half life in CD-1 mouse at 3 mg/kg, iv. Format: ADME, organism-based. The following applies: in vivo; for half-life: CD-1, mouse.
Another series concerns Homo sapiens. The series can be described thus: Antitumor activity against human TamR1 cells xenografted in nu/nu mouse assessed as tumor regression at 30 mg/kg, po administered daily for 4 weeks. It counts as functional, organism-based. (In general: A xenograft is tissue or cells of one species grown in another, often human tumour cells in immunodeficient mice.)

Activity calls are given as the source filed them. No cut-off for these calls is given here.

Molecule `O=C(O)/C=C/c1ccc(/C(=C(\c2ccccc2)C2CCC2)c2ccc(-c3cncs3)cc2)cc1` returned an EC50 at Estrogen receptor of 1.7 nM. The IC50 with MCF7 was 9.2 nM. Also, the Efficacy in the series with Rattus norvegicus [1] was found to be 89%.

For `COc1ccc(/C(=C(\c2ccc(/C=C/C(=O)O)cc2)c2ccc(-c3cncs3)cc2)C2CCC2)c(Cl)c1`, it took 0.8 nM to reach a half-maximal effect at Estrogen receptor (EC50). In the series on MCF7, the IC50 was 1.8 nM. In addition, the Efficacy in the series with Rattus norvegicus [2] amounted to 93%. The molecule also had an AUC at 24 h in [3] of 3800 ng·h/mL. The molecule further had a fraction unbound at 10 µM in series [4] of 0.001.

Regarding `O=C(O)/C=C/c1ccc(/C(=C(\c2ccc(C(F)(F)F)cc2Cl)C2CCC2)c2ccc3scnc3c2)cc1`, the EC50 at Estrogen receptor stood at 1 nM. Besides, in the series on MCF7, the IC50 was 2.6 nM. Besides, in the series on Rattus norvegicus [1], the Efficacy stood at 93%.

As to `COc1ccc(/C(=C(\c2ccc(/C=C/C(=O)O)cc2)c2ccc(-c3cn[nH]c3)cc2)C2CCC2)c(Cl)c1`, the midpoint of the response at Estrogen receptor, the EC50, lay at 1.5 nM. Besides, the IC50 in the series with MCF7 was 5.1 nM. Besides, the Efficacy in the series on Rattus norvegicus [2] was 93%. In addition, in series [3], the AUC at 24 h stood at 18000 ng·h/mL. In series [5], this molecule had a bioavailability of 52%. In addition, the clearance in series [6] came out at 4.8 mL/min/kg. The Vd in [7] came out at 0.6 L/kg. This molecule showed a half-life in series [8] of 3 h. For the same molecule, the fraction unbound at 10 µM in [4] amounted to 0.002.

Consider `COc1ccc(/C(=C(\c2ccc(/C=C/C(=O)O)cc2)c2ccc(N3CCOCC3)cc2)C2CCC2)c(Cl)c1`, for which a half-maximal response at Estrogen receptor (EC50) required 0.6 nM. Also, the IC50 in the series on MCF7 worked out at 2.1 nM. Besides, in the series with Rattus norvegicus [2], the Efficacy is 92%. Also, the AUC in [9] (CD-1, mouse, read-out: AUC) came out at 40000 ng·h/mL. For the same molecule, the bioavailability in series [10] is > 100%. This molecule registered a clearance in [11] of 5.1 mL/min/kg. Also, the Vd in [12] amounted to 1.5 L/kg. The molecule further showed a half-life in [13] of 2.9 h. Besides, the fraction unbound at 10 µM in series [4] was determined as 0.004. Also, the result in the series on Homo sapiens was Active.

At Estrogen receptor, `N#Cc1ccc(/C(=C(\c2ccc(/C=C/C(=O)O)cc2)c2ccc(-c3cn[nH]c3)cc2)C2CCC2)c(Cl)c1` registered an EC50 of 0.7 nM. Further, the IC50 with MCF7 amounted to 2.2 nM. The Efficacy in the series on Rattus norvegicus [1] came to 94%.

Molecule `O=C(O)/C=C/c1ccc(/C(=C(\c2ccc(C(F)(F)F)cc2Cl)C2CCC2)c2ccc(N3CCOCC3)cc2)cc1` came in with an EC50 on Estrogen receptor of 1.9 nM. The IC50 in the series on MCF7 was 6.9 nM. In the series with Rattus norvegicus [1], the Efficacy worked out at 93%.

In turn, `O=C(O)/C=C/c1ccc(/C(=C(\c2ccc(F)cc2Cl)C2CCC2)c2ccc(-c3cn[nH]c3)cc2)cc1` gave an EC50 on Estrogen receptor of 1.1 nM. The IC50 with MCF7 was determined as 2.9 nM. The Efficacy in the series on Rattus norvegicus [2] is recorded as 91%.

For `COc1ccc(/C(=C(\c2ccc(/C=C/C(=O)O)cc2)c2ccc3scnc3c2)C2CCC2)c(Cl)c1`, the concentration giving a half-maximal response (EC50) at Estrogen receptor was 0.4 nM. Also, the IC50 with MCF7 worked out at 0.9 nM. The Efficacy with Rattus norvegicus [2] is recorded as 94%. In addition, in series [9] (CD-1, mouse, read-out: AUC), the AUC was found to be 75000 ng·h/mL. Moreover, the bioavailability in series [10] came to 80%. In addition, the clearance in series [11] turned out to be 1.8 mL/min/kg. Further, the Vd in series [12] turned out to be 0.3 L/kg. Further, the half-life in [13] was 3.2 h. In [4], this molecule gave a fraction unbound at 10 µM of 0.002. Also, the result in the series on Homo sapiens was Active.

`O=C(O)/C=C/c1ccc(/C(=C(\c2ccc(F)cc2Cl)C2CCC2)c2ccc(-c3cncs3)cc2)cc1` had an EC50 on Estrogen receptor of 0.8 nM. For the same molecule, the IC50 in the series with MCF7 came out at 4.2 nM. Further, in the series with Rattus norvegicus [2], the Efficacy is reported as 91%.

Consider `COc1ccc(/C(=C(\c2ccc(/C=C/C(=O)O)cc2)c2ccc3nccn3c2)C2CCC2)c(Cl)c1`, for which the EC50 on Estrogen receptor amounted to 0.3 nM. The IC50 with MCF7 stood at 0.7 nM. Also, the Efficacy with Rattus norvegicus [2] was found to be 93%. Besides, in [9] (mouse), the AUC turned out to be 8400 ng·h/mL. Also, in series [10] (mouse), the F came out at 69%. The Vdss in [12] (mouse) was 0.9 L/kg. The molecule also registered a t1/2 in series [13] (mouse) of 1.2 h. The fraction unbound at 10 µM in [4] was found to be 0.015. Further, in the series with Homo sapiens, the outcome was inactive.

On to `O=C(O)/C=C/c1ccc(/C(=C(\c2ccc(F)cc2Cl)C2CCC2)c2ccc3scnc3c2)cc1`, for which the EC50 on Estrogen receptor was 0.7 nM. Further, in the series on MCF7, the IC50 is 3 nM. For the same molecule, the Efficacy with Rattus norvegicus [2] worked out at 91%.

As to `CC/C(=C(/c1ccc(/C=C/C(=O)O)cc1)c1ccc2[nH]ncc2c1)c1ccc(F)cc1Cl` [BRILANESTRANT], the half-life in [13] was 4.6 h. Also, in [4], the fraction unbound at 10 µM stood at 0.011.

With `O=C(O)/C=C/c1ccc(/C(=C(\c2ccc(F)cc2Cl)C2CCC2)c2ccc3nccn3c2)cc1`, the EC50 at Estrogen receptor stood at 1.5 nM. Further, the IC50 in the series on MCF7 was determined as 4.4 nM. Further, in the series with Rattus norvegicus [1], the Efficacy worked out at 90%.

On Estrogen receptor, `N#Cc1cc(Cl)ccc1/C(=C(\c1ccc(/C=C/C(=O)O)cc1)c1ccc(-c2cn[nH]c2)cc1)C1CCC1` displayed an EC50 of 1.1 nM. The IC50 with MCF7 worked out at 4.4 nM. Moreover, the Efficacy in the series with Rattus norvegicus [1] is listed as 94%.

`O=C(O)/C=C/c1ccc(/C(=C(\c2ccc(F)cc2Cl)C2CCC2)c2ccc(N3CCOCC3)cc2)cc1` returned an EC50 at Estrogen receptor of 1.6 nM. Moreover, the IC50 in the series with MCF7 is 5 nM. Moreover, the Efficacy with Rattus norvegicus [2] was 90%.

Consider `N#Cc1cc(Cl)ccc1/C(=C(\c1ccc(/C=C/C(=O)O)cc1)c1ccc(-c2cncs2)cc1)C1CCC1`, for which the midpoint of the response at Estrogen receptor, the EC50, lay at 1.9 nM. In addition, in the series with MCF7, the IC50 amounted to 4.3 nM. Moreover, in the series on Rattus norvegicus [1], the Efficacy is recorded as 94%.

Regarding `N#Cc1ccc(/C(=C(\c2ccc(/C=C/C(=O)O)cc2)c2ccc3scnc3c2)C2CCC2)c(Cl)c1`, the EC50 at Estrogen receptor was determined as 0.8 nM. For the same molecule, the IC50 in the series with MCF7 stood at 1.4 nM. Moreover, the Efficacy in the series with Rattus norvegicus [2] was determined as 92%.

Usually EC50 stands for the concentration giving half of the maximal effect. Read a low EC50 as higher potency in that assay. The IC50 is the point on the concentration scale where inhibition reaches its midpoint. The term AUC denotes concentration integrated over time. Broadly, the fraction unbound is free concentration divided by total concentration. Read a high fraction unbound as weak binding. Broadly, the bioavailability is the share of a dose that reaches the circulation, judged against a reference dose that is usually intravenous. The low end stands for poor availability, the high end for good availability. Broadly, the clearance is the rate of elimination divided by the concentration. In general, half-life refers to the time in which the quantity being followed falls by half. What is called Vdss is the apparent volume that relates the amount in the body to the concentration in plasma or blood.
